# Measured values from patent publication US12559529B2, “NPY2 receptor agonists” (Boehringer Ingelheim International GmbH, priority 2019, dated 2026).
# *1 amine or outer side, *2 acyl side, *3 side chain or, on linkers, in order; H or OH if unused. Where a SMILES comes first, the peptide text is derived from it. Side-chain parts run from the residue outwards. The star is where a group is joined. C18 diacid = O=C(O)CCCCCCCCCCCCCCCCC(=O)*; γGlu = O=C(O)[C@H](CCC(=O)[*:2])N[*:1]; Isovaleryl = CC(C)CC(=O)*; AEEA = NCCOCCOCC(=O)O
# Target: T1, Human Neuropeptide Y2 Receptor (Homo sapiens, UniProt P49146)
# T1 construct: purchased CHEMICON HTS066M
# T1 sequence (P49146 1-381): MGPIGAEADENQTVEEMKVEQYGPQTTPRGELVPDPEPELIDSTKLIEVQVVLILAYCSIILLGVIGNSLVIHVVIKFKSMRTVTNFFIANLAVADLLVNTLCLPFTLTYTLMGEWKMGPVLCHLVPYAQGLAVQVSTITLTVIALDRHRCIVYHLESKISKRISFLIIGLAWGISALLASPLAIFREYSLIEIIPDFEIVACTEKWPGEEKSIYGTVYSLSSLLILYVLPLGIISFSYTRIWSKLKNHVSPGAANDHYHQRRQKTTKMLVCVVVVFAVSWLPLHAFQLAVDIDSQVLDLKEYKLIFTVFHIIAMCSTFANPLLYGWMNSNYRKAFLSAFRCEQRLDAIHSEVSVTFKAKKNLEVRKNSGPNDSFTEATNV
# Assay: Radioligand binding competition assay (RLB)
# Conditions: Table 3; human 125I-PYY (1-36) 0.02 nM, Y2 receptor membranes; read-out: Ki
# Summary of the method: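 IC50 values come from nonlinear regression of sigmoidal dose-response curves of filter-bound radioactivity. Peptides competed with radioligand at human Y2 receptor membranes (0.5 μg protein/well) for 2 h at room temperature in pH 7.4 HEPES buffer containing Mg2+, Ca2+ and 0.2% ovalbumin.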
row,Ki [nM],SMILES
1,2,"CC(C)CC(=O)N[C@@H](C)C(=O)N1CCC[C@H]1C(=O)N[C@@H](CCC(=O)O)C(=O)N[C@@H](CCCCNC(=O)COCCOCCNC(=O)COCCOCCNC(=O)CC[C@H](NC(=O)CCCCCCCCCCCCCCCCC(=O)O)C(=O)O)C(=O)N1CCC[C@H]1C(=O)N[C@@H](CCC(=O)O)C(=O)N[C@@H](C)C(=O)N[C@@H](CC(=O)O)C(=O)N[C@@H](C)C(=O)N[C@@H](CCC(=O)O)C(=O)N1CCC[C@H]1C(=O)N[C@@H](CCC(=O)O)C(=O)N[C@@H](CCC(=O)O)C(=O)N[C@@H](CC(C)C)C(=O)N[C@@H](CCC(N)=O)C(=O)N[C@@H](CCCNC(=N)N)C(=O)N[C@@H](Cc1ccc(O)cc1)C(=O)N[C@@H](Cc1ccc(O)cc1)C(=O)N[C@H](C(=O)N[C@@H](CO)C(=O)N[C@@H](CC(C)C)C(=O)N[C@@H](CCCNC(=N)N)C(=O)N[C@@H](Cc1c[nH]cn1)C(=O)N[C@@H](Cc1ccc(O)cc1)C(=O)N[C@@H](Cc1ccc(O)cc1)C(=O)N[C@@H](CC(N)=O)C(=O)N[C@@H](Cc1c[nH]c2ccccc12)C(=O)N[C@@H](CC(C)C)C(=O)N[C@H](C(=O)N[C@@H](CCCNC(=N)N)C(=O)N[C@@H](CCC(N)=O)C(=O)N[C@@H](CCCNC(=N)N)C(=O)N[C@@H](Cc1ccc(O)cc1)C(N)=O)[C@@H](C)O)[C@@H](C)O [Compound 160, N{alpha-4}-(3-methylbutanoyl)-N{epsilon-7}-[2-(2-{2-[2-(2-{2-[(4S)-4-carboxy-4-(17-carboxyheptadecanamido)butanamido]ethoxy}ethoxy)acetamido]ethoxy}ethoxy)acetamido]-[4A,7K,9E,10A,13E,18Q,22T,28Y,30W,31L]hPYY (4-36)] (Isovaleryl-APEK([AEEA-AEEA-γGlu-C18 diacid])PEADAEPEELQRYYTSLRHYYNWLTRQRY-NH2)"
2,2.49,"CC(C)CC(=O)N[C@@H](C)C(=O)N1CCC[C@H]1C(=O)N[C@@H](CCC(=O)O)C(=O)N[C@@H](CCCCNC(=O)COCCOCCNC(=O)COCCOCCNC(=O)CC[C@H](NC(=O)CCCCCCCCCCCCCCCCC(=O)O)C(=O)O)C(=O)N1CCC[C@H]1C(=O)N[C@@H](CCC(=O)O)C(=O)N[C@@H](CCC(=O)O)C(=O)N[C@@H](CC(=O)O)C(=O)N[C@@H](C)C(=O)N[C@@H](CO)C(=O)N1CCC[C@H]1C(=O)N[C@@H](CCC(=O)O)C(=O)N[C@@H](CCC(=O)O)C(=O)N[C@@H](CC(C)C)C(=O)N[C@@H](CCC(N)=O)C(=O)N[C@@H](CCCNC(=N)N)C(=O)N[C@@H](Cc1ccc(O)cc1)C(=O)N[C@@H](CCC(N)=O)C(=O)N[C@H](C(=O)N[C@@H](CO)C(=O)N[C@@H](CC(C)C)C(=O)N[C@@H](CCCNC(=N)N)C(=O)N[C@@H](Cc1c[nH]cn1)C(=O)N[C@@H](Cc1ccc(O)cc1)C(=O)N[C@@H](Cc1ccc(O)cc1)C(=O)N[C@@H](CC(N)=O)C(=O)N[C@@H](Cc1c[nH]c2ccccc12)C(=O)N[C@@H](CC(C)C)C(=O)N[C@H](C(=O)N[C@@H](CCCNC(=N)N)C(=O)N[C@@H](CCC(N)=O)C(=O)N[C@@H](CCCNC(=N)N)C(=O)N[C@@H](Cc1ccc(O)cc1)C(N)=O)[C@@H](C)O)C(C)C [Compound 165, N{alpha-4}-(3-methylbutanoyl)-N{epsilon-7}-[2-(2-{2-[2-(2-{2-[(4S)-4-carboxy-4-(17-carboxyheptadecanamido)butanamido]ethoxy}ethoxy)acetamido]ethoxy}ethoxy)acetamido]-[4A,7K,9E,18Q,21Q,22V,28Y,30W,31L]hPYY (4-36)]"
3,0.66,"CC(C)CC(=O)N[C@@H](C)C(=O)N1CCC[C@H]1C(=O)N[C@@H](CCC(=O)O)C(=O)N[C@@H](CCCCNC(=O)COCCOCCNC(=O)COCCOCCNC(=O)CC[C@H](NC(=O)CCCCCCCCCCCCCCCCC(=O)O)C(=O)O)C(=O)N1CCC[C@H]1C(=O)N1CCC[C@H]1C(=O)N[C@@H](C)C(=O)N[C@@H](CC(=O)O)C(=O)N[C@@H](C)C(=O)N[C@@H](CO)C(=O)N1CCC[C@H]1C(=O)N[C@@H](CCC(=O)O)C(=O)N[C@@H](CCC(=O)O)C(=O)N[C@@H](CC(C)C)C(=O)N[C@@H](CCC(N)=O)C(=O)N[C@@H](CCCNC(=N)N)C(=O)N[C@@H](Cc1ccc(O)cc1)C(=O)N[C@@H](Cc1ccc(O)cc1)C(=O)N[C@H](C(=O)N[C@@H](CCC(=O)O)C(=O)N[C@@H](CC(C)C)C(=O)N[C@@H](CCCNC(=N)N)C(=O)N[C@@H](Cc1c[nH]cn1)C(=O)N[C@@H](Cc1ccc(O)cc1)C(=O)N[C@@H](Cc1ccc(O)cc1)C(=O)N[C@@H](CC(N)=O)C(=O)N[C@@H](Cc1c[nH]c2ccccc12)C(=O)N[C@@H](CC(C)C)C(=O)N[C@H](C(=O)N[C@@H](CCCNC(=N)N)C(=O)N[C@@H](CCC(N)=O)C(=O)N[C@@H](CCCNC(=N)N)C(=O)N[C@@H](Cc1ccc(O)cc1)C(N)=O)[C@@H](C)O)C(C)C [Compound 166, N{alpha-4}-(3-methylbutanoyl)-N{epsilon-7}-[2-(2-{2-[2-(2-{2-[(4S)-4-carboxy-4-(17-carboxyheptadecanamido)butanamido]ethoxy}ethoxy)acetamido]ethoxy}ethoxy)acetamido]-[4A,7K,9P,10A,18Q,22V,23E,28Y,30W,31L]hPYY (4-36)]"
4,2.34,"CC(C)CC(=O)N[C@@H](C)C(=O)N1CCC[C@H]1C(=O)N[C@@H](CCC(=O)O)C(=O)N[C@@H](CCCCNC(=O)COCCOCCNC(=O)COCCOCCNC(=O)CC[C@H](NC(=O)CCCCCCCCCCCCCCCCC(=O)O)C(=O)O)C(=O)N1CCC[C@H]1C(=O)N[C@@H](CCC(=O)O)C(=O)N[C@@H](CCC(=O)O)C(=O)N[C@@H](CCC(=O)O)C(=O)N[C@@H](C)C(=O)N[C@@H](CO)C(=O)N1CCC[C@H]1C(=O)N[C@@H](CCC(=O)O)C(=O)N[C@@H](CCC(=O)O)C(=O)N[C@@H](CC(C)C)C(=O)N[C@@H](CCC(N)=O)C(=O)N[C@@H](CCCNC(=N)N)C(=O)N[C@@H](Cc1ccc(O)cc1)C(=O)N[C@@H](Cc1ccc(O)cc1)C(=O)N[C@H](C(=O)N[C@@H](C)C(=O)N[C@@H](CC(C)C)C(=O)N[C@@H](CCCNC(=N)N)C(=O)N[C@@H](Cc1c[nH]cn1)C(=O)N[C@@H](Cc1ccc(O)cc1)C(=O)N[C@@H](Cc1ccc(O)cc1)C(=O)N[C@@H](CC(N)=O)C(=O)N[C@@H](Cc1c[nH]c2ccccc12)C(=O)N[C@@H](CC(C)C)C(=O)N[C@H](C(=O)N[C@@H](CCCNC(=N)N)C(=O)N[C@@H](CCC(N)=O)C(=O)N[C@@H](CCCNC(=N)N)C(=O)N[C@@H](Cc1ccc(O)cc1)C(N)=O)[C@@H](C)O)C(C)C [Compound 169, N{alpha-4}-(3-methylbutanoyl)-N{epsilon-7}-[2-(2-{2-[2-(2-{2-[(4S)-4-carboxy-4-(17-carboxyheptadecanamido)butanamido]ethoxy}ethoxy)acetamido]ethoxy}ethoxy)acetamido]-[4A,7K,9E,11E,18Q,22V,23A,28Y,30W,31L]hPYY (4-36)]"
